Data on nine molecules can be found in EP0321273A2, “Thioformamide derivatives” (RHONE POULENC RORER LIMITED, priority 1987, dated 1989).

Assay [1] deals with isolated rat aorta. Kind of assay: Test A: activity against contractions induced by low K+ concentrations (20 mM K+) in the isolated rat aorta. It counts as cell-based. The note with it: concentration reducing the contraction induced by 20 mM K⁺ by 90%; rat thoracic aorta strips denuded of endothelium, Krebs solution, cumulative concentrations; read-out: Activity Test A EC₉₀. As to the method: (§1) The test methods used were adapted from those described by Winslow et al [Eur.J.Pharmacol., 131, 219-228 (1986)] and Karaki [J.Pharmacol. Methods, 18, 1-21 (1987)] for differentiating vaso-relaxant activity.
Test A : Activity against contractions induced by low K⁺ concentrations in the isolated rat aorta
Thoracic aorta was removed from rats and transverse strips, denuded of endothelium, were suspended in a bath containing Krebs solution. The tension was recorded and a contraction induced by addition of 20 mM K⁺ (potassium ion) to the bathing solution. The test compound was added to the bath as a solution in increasing cumulative concentration. The concentration in the bathing solution of the test compound which reduced the K⁺-induced contraction by 90% was determined and expressed in µM as the effective concentration (EC₉₀), given in Table I.

The test system of assay [2] is isolated rat aorta. Kind of assay: Test B: activity against contractions induced by high K+ concentrations (60 mM K+) in isolated rat aorta. It counts as cell-based. The note with it: contraction induced by 60 mM K⁺; rat thoracic aorta strips denuded of endothelium, cumulative addition; read-out: concentration in the bath reducing the K⁺-induced contraction by 90%. As to the method:
as §1
Test B : Activity against contractions induced by high K⁺ concentrations in isolated rat aorta
The test method was as in Test A except that contractions were induced by addition of 60 mM K⁺ to the bathing solution. The cumulative addition of solutions of the test compound was conducted and the concentration in the bath reducing the K⁺-induced contraction by 90% was greater than 30µM for Compounds C, D, E, F, I, J and K, and much greater than 30µM for Compound A. Table I

Turning to `CNC(=S)C1(c2cccc(C(F)(F)F)c2)CCCCC1=O` (racemic) [F, (±)-N-methyl-2-oxo-1-(3-trifluoromethylphenyl)cyclohexanecarbothioamide], the EC90 with isolated rat aorta [1] came to 900 nM. In addition, the IC90 in the assay on isolated rat aorta [2] is over 30 µM.

Take `CNC(=S)C1(c2ccccc2)CCCCC1=NOCc1ccc(F)cc1` (racemic) [H, (±)-anti-N-methyl-2-(4-fluorobenzyloxyimino)-1-phenylcyclohexanecarbothioamide]: the EC90 with isolated rat aorta [1] came to 600 nM.

`CNC(=S)C1(c2ccc(Cl)c(Cl)c2)CCCCC1=O` (racemic) [J, (±)-N-methyl-2-oxo-1-(3,4-dichlorophenyl)cyclohexanecarbothioamide]: the EC90 in the assay on isolated rat aorta [1] was 400 nM. Besides, in the assay with isolated rat aorta [2], the IC90 was over 30 µM.

`CNC(=S)C1(c2ccccc2)CCCCC1=NO` (racemic) [Compound C, (±)-anti-N-methyl-2-hydroxyimino-1-phenylcyclohexanecarbothioamide]: the EC90 in the assay with isolated rat aorta [1] was over 30000 nM. Further, in the assay on isolated rat aorta [2], the IC90 was over 30 µM.

For the molecule `CNC(=S)C1(c2ccccc2)CCCCC1=O` (racemic) [Compound A, (±)-N-methyl-2-oxo-1-phenylcyclohexanecarbothioamide], the EC90 in the assay on isolated rat aorta [1] was 29000 nM. Also, in the assay with isolated rat aorta [2], the IC90 was over 30 µM.

On to `CNC(=S)C1(c2ccc(Cl)cc2)CCCCC1=O` (racemic) [E, (±)-N-methyl-2-oxo-1-(4-chlorophenyl)cyclohexanecarbothioamide], for which, in the assay with isolated rat aorta [1], the EC90 turned out to be 12000 nM. Further, the IC90 in the assay with isolated rat aorta [2] was over 30 µM.

Turning to `CNC(=S)C1(c2ccccc2)CCCCC1=NOC` (racemic) [Compound D, (±)-anti-N-methyl-2-methoxyimino-1-phenylcyclohexanecarbothioamide], the EC90 in the assay on isolated rat aorta [1] was determined as 20000 nM. Moreover, the IC90 with isolated rat aorta [2] was over 30 µM.

As for `CNC(=S)C1(c2cccc([N+](=O)[O-])c2)CCCCC1=O` (racemic) [Compound K, (±)-N-methyl-2-oxo-1-(3-nitrophenyl)cyclohexanecarbothioamide], in the assay with isolated rat aorta [1], the EC90 came out at 700 nM. Moreover, the IC90 in the assay with isolated rat aorta [2] is over 30 µM.

As for `CNC(=S)C1(c2ccc3ccccc3c2)CCCCC1=O` (racemic) [I, (±)-N-methyl-2-oxo-1-(2-naphthyl)cyclohexanecarbothioamide], the EC90 in the assay on isolated rat aorta [1] was found to be 2000 nM. Also, the IC90 in the assay with isolated rat aorta [2] was over 30 µM.
